# Laboratory results reported in the supplement of paper PMC10627819.
# How the values were obtained:
# Test in all cases: fitness (endpoint OD595 vs no drug) (fraction); higher = more growth
# S. aureus Newman = test system: S. aureus Newman
# Procedure, shortened: (§1)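 Fitness was measured as bacterial growth in 384-well plates inoculated at OD595 0.01 (30 µl, or 55 µl for S. pneumoniae). Media were TSB, LB Lennox or CY, at 37 °C. OD595 was read every 30 min for 14 h and background-subtracted against the first reading. Fitness is OD595 at the transition into stationary phase divided by the robust mean of no-drug control wells, capped at 1.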
# B. subtilis 168 = test system: B. subtilis 168
# Procedure, shortened: as §1
# S. pneumoniae D39V = test system: S. pneumoniae D39V
# Procedure, shortened: as §1
# [1] = first compound 0.625 µg/mL, partner 0.0195 µg/mL
# [2] = first compound 0.625 µg/mL, partner 0.039 µg/mL
# [3] = first compound 0.625 µg/mL, partner 0.078 µg/mL
# [4] = first compound 1.25 µg/mL, partner 0.0195 µg/mL
# [5] = first compound 1.25 µg/mL, partner 0.039 µg/mL
# [6] = first compound 1.25 µg/mL, partner 0.078 µg/mL
# [7] = first compound 2.5 µg/mL, partner 0.0195 µg/mL
# [8] = first compound 2.5 µg/mL, partner 0.039 µg/mL
# [9] = first compound 2.5 µg/mL, partner 0.078 µg/mL
# 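Note: OD595 on entry to stationary phase over no-drug wells; at most 1.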
structure (smiles),measurement,setting,value
O=C(O)c1cn(C2CC2)c2cc(N3CCNCC3)c(F)cc2c1=O [Ciprofloxacin] + CC1(C)S[C@@H]2[C@H](NC(=O)Cc3ccccc3)C(=O)N2[C@H]1C(=O)O [Penicillin G],fitness,"S. aureus Newman; first compound 0.0375 µg/mL, partner 0.0195 µg/mL",0.66
same,fitness,"S. aureus Newman; first compound 0.0375 µg/mL, partner 0.039 µg/mL",0.679
same,fitness,"S. aureus Newman; first compound 0.0375 µg/mL, partner 0.078 µg/mL",0.688
same,fitness,"S. aureus Newman; first compound 0.075 µg/mL, partner 0.0195 µg/mL",0.582
same,fitness,"S. aureus Newman; first compound 0.075 µg/mL, partner 0.039 µg/mL",0.593
same,fitness,"S. aureus Newman; first compound 0.075 µg/mL, partner 0.078 µg/mL",0.593
same,fitness,"S. aureus Newman; first compound 0.15 µg/mL, partner 0.0195 µg/mL",0.0269
same,fitness,"S. aureus Newman; first compound 0.15 µg/mL, partner 0.039 µg/mL",0.0263
same,fitness,"S. aureus Newman; first compound 0.15 µg/mL, partner 0.078 µg/mL",0.024
CC1(C)S[C@@H]2[C@H](NC(=O)Cc3ccccc3)C(=O)N2[C@H]1C(=O)O [Penicillin G] + CN[C@H](CC(C)C)C(=O)N[C@H]1C(=O)N[C@@H](CC(N)=O)C(=O)N[C@H]2C(=O)N[C@H]3C(=O)N[C@H](C(=O)N[C@H](C(=O)O)c4cc(O)cc(O)c4-c4cc3ccc4O)[C@H](O)c3ccc(c(Cl)c3)Oc3cc2cc(c3O[C@@H]2O[C@H](CO)[C@@H](O)[C@H](O)[C@H]2O[C@H]2C[C@](C)(N)[C@H](O)[C@H](C)O2)Oc2ccc(cc2Cl)[C@H]1O [Vancomycin],fitness,"S. aureus Newman; first compound 0.0195 µg/mL, partner 0.1875 µg/mL",0.895
same,fitness,"S. aureus Newman; first compound 0.0195 µg/mL, partner 0.375 µg/mL",0.918
same,fitness,"S. aureus Newman; first compound 0.0195 µg/mL, partner 0.75 µg/mL",0.884
same,fitness,"S. aureus Newman; first compound 0.039 µg/mL, partner 0.1875 µg/mL",0.885
same,fitness,"S. aureus Newman; first compound 0.078 µg/mL, partner 0.1875 µg/mL",0.907
same,fitness,"S. aureus Newman; first compound 0.078 µg/mL, partner 0.375 µg/mL",0.926
same,fitness,"S. aureus Newman; first compound 0.078 µg/mL, partner 0.75 µg/mL",0.88
Cc1ncc([N+](=O)[O-])n1CCO [Metronidazole] + CC1(C)S[C@@H]2[C@H](NC(=O)Cc3ccccc3)C(=O)N2[C@H]1C(=O)O [Penicillin G],fitness,S. aureus Newman; [1],0.924
same,fitness,S. aureus Newman; [2],0.9
same,fitness,S. aureus Newman; [3],0.812
same,fitness,"S. aureus Newman; first compound 0.781 µg/mL, partner 0.0195 µg/mL",0.836
same,fitness,"S. aureus Newman; first compound 0.781 µg/mL, partner 0.039 µg/mL",0.975
same,fitness,"S. aureus Newman; first compound 0.781 µg/mL, partner 0.078 µg/mL",0.982
same,fitness,S. aureus Newman; [4],0.799
same,fitness,S. aureus Newman; [5],0.882
same,fitness,S. aureus Newman; [6],0.858
same,fitness,"S. aureus Newman; first compound 1.562 µg/mL, partner 0.0195 µg/mL",0.85
same,fitness,"S. aureus Newman; first compound 1.562 µg/mL, partner 0.039 µg/mL",0.932
same,fitness,"S. aureus Newman; first compound 1.562 µg/mL, partner 0.078 µg/mL",0.959
same,fitness,S. aureus Newman; [7],0.826
same,fitness,S. aureus Newman; [8],0.913
same,fitness,S. aureus Newman; [9],0.807
same,fitness,"S. aureus Newman; first compound 3.124 µg/mL, partner 0.0195 µg/mL",0.829
same,fitness,"S. aureus Newman; first compound 3.124 µg/mL, partner 0.039 µg/mL",0.947
same,fitness,"S. aureus Newman; first compound 3.124 µg/mL, partner 0.078 µg/mL",0.946
COc1cccc2c1C(=O)c1c(O)c3c(c(O)c1C2=O)C[C@@](O)(C(=O)CO)C[C@@H]3O[C@H]1C[C@H](N)[C@H](O)[C@H](C)O1 [Doxorubicin] + CC1(C)S[C@@H]2[C@H](NC(=O)Cc3ccccc3)C(=O)N2[C@H]1C(=O)O [Penicillin G],fitness,S. aureus Newman; [1],0.705
same,fitness,S. aureus Newman; [2],0.727
same,fitness,S. aureus Newman; [3],0.752
same,fitness,S. aureus Newman; [4],0.711
same,fitness,S. aureus Newman; [5],0.718
same,fitness,S. aureus Newman; [6],0.72
same,fitness,S. aureus Newman; [7],0.698
same,fitness,S. aureus Newman; [8],0.734
same,fitness,S. aureus Newman; [9],0.692
CC1(C)S[C@@H]2[C@H](NC(=O)Cc3ccccc3)C(=O)N2[C@H]1C(=O)O [Penicillin G] + CCN(CC)CCOC(=O)c1ccc(N)cc1 [Procaine],fitness,"S. aureus Newman; first compound 0.0195 µg/mL, partner 85.5 µg/mL",0.899
same,fitness,"S. aureus Newman; first compound 0.0195 µg/mL, partner 171 µg/mL",0.876
same,fitness,"S. aureus Newman; first compound 0.0195 µg/mL, partner 342 µg/mL",0.876
same,fitness,"S. aureus Newman; first compound 0.039 µg/mL, partner 85.5 µg/mL",0.943
same,fitness,"S. aureus Newman; first compound 0.039 µg/mL, partner 171 µg/mL",0.925
same,fitness,"S. aureus Newman; first compound 0.039 µg/mL, partner 342 µg/mL",0.914
same,fitness,"S. aureus Newman; first compound 0.078 µg/mL, partner 85.5 µg/mL",0.947
same,fitness,"S. aureus Newman; first compound 0.078 µg/mL, partner 171 µg/mL",0.977
same,fitness,"S. aureus Newman; first compound 0.078 µg/mL, partner 342 µg/mL",0.952
CC1(C)S[C@@H]2[C@H](NC(=O)Cc3ccccc3)C(=O)N2[C@H]1C(=O)O [Penicillin G] + C[n+]1ccc(-c2cc[n+](C)cc2)cc1 [Paraquat],fitness,"S. aureus Newman; first compound 0.0195 µg/mL, partner 1.25 µg/mL",0.827
same,fitness,"S. aureus Newman; first compound 0.0195 µg/mL, partner 2.5 µg/mL",0.863
same,fitness,"S. aureus Newman; first compound 0.0195 µg/mL, partner 5 µg/mL",0.875
same,fitness,"S. aureus Newman; first compound 0.039 µg/mL, partner 1.25 µg/mL",0.832
same,fitness,"S. aureus Newman; first compound 0.039 µg/mL, partner 2.5 µg/mL",0.871
same,fitness,"S. aureus Newman; first compound 0.039 µg/mL, partner 5 µg/mL",0.807
same,fitness,"S. aureus Newman; first compound 0.078 µg/mL, partner 1.25 µg/mL",0.876
same,fitness,"S. aureus Newman; first compound 0.078 µg/mL, partner 2.5 µg/mL",0.827
same,fitness,"S. aureus Newman; first compound 0.078 µg/mL, partner 5 µg/mL",0.819
O=C(O)c1cn(C2CC2)c2cc(N3CCNCC3)c(F)cc2c1=O [Ciprofloxacin] + CN(C)[C@@H]1C(O)=C(C(N)=O)C(=O)[C@@]2(O)C(O)=C3C(=O)c4c(O)ccc(Cl)c4[C@@](C)(O)[C@H]3C[C@@H]12 [Chlortetracycline],fitness,"B. subtilis 168; first compound 0.0098 µg/mL, partner 0.0475 µg/mL",0.886
same,fitness,"B. subtilis 168; first compound 0.0098 µg/mL, partner 0.095 µg/mL",0.82
same,fitness,"B. subtilis 168; first compound 0.0098 µg/mL, partner 0.19 µg/mL",0.658
same,fitness,"B. subtilis 168; first compound 0.0195 µg/mL, partner 0.0475 µg/mL",0.776
same,fitness,"B. subtilis 168; first compound 0.0195 µg/mL, partner 0.095 µg/mL",0.692
same,fitness,"B. subtilis 168; first compound 0.0195 µg/mL, partner 0.19 µg/mL",0.582
same,fitness,"B. subtilis 168; first compound 0.039 µg/mL, partner 0.19 µg/mL",0.307
same,fitness,"S. pneumoniae D39V; first compound 0.125 µg/mL, partner 0.012 µg/mL",0.867
same,fitness,"S. pneumoniae D39V; first compound 0.125 µg/mL, partner 0.024 µg/mL",0.748
same,fitness,"S. pneumoniae D39V; first compound 0.125 µg/mL, partner 0.048 µg/mL",0.35
same,fitness,"S. pneumoniae D39V; first compound 0.125 µg/mL, partner 0.375 µg/mL",0.0283
same,fitness,"S. pneumoniae D39V; first compound 0.125 µg/mL, partner 0.75 µg/mL",0.038
same,fitness,"S. pneumoniae D39V; first compound 0.125 µg/mL, partner 1.5 µg/mL",0.0287
same,fitness,"S. pneumoniae D39V; first compound 0.25 µg/mL, partner 0.012 µg/mL, one replicate",0.74
same,fitness,"S. pneumoniae D39V; first compound 0.25 µg/mL, partner 0.024 µg/mL, one replicate",0.447
same,fitness,"S. pneumoniae D39V; first compound 0.25 µg/mL, partner 0.048 µg/mL, one replicate",0.237
same,fitness,"S. pneumoniae D39V; first compound 0.25 µg/mL, partner 0.375 µg/mL",0.0322
same,fitness,"S. pneumoniae D39V; first compound 0.25 µg/mL, partner 0.75 µg/mL",0.0502
same,fitness,"S. pneumoniae D39V; first compound 0.25 µg/mL, partner 1.5 µg/mL",0.0591
same,fitness,"S. pneumoniae D39V; first compound 0.5 µg/mL, partner 0.048 µg/mL",0.323
same,fitness,"S. pneumoniae D39V; first compound 0.5 µg/mL, partner 0.75 µg/mL",0.0332
same,fitness,"S. pneumoniae D39V; first compound 0.5 µg/mL, partner 1.5 µg/mL",0.0454
CO/N=C(\C(=O)N[C@@H]1C(=O)N2C(C(=O)O)=C(COC(C)=O)CS[C@H]12)c1csc(N)n1 [Cefotaxime] + CC1(C)S[C@@H]2[C@H](NC(=O)Cc3ccccc3)C(=O)N2[C@H]1C(=O)O [Penicillin G],fitness,"S. aureus Newman; first compound 0.078 µg/mL, partner 0.0195 µg/mL",0.677
same,fitness,"S. aureus Newman; first compound 0.078 µg/mL, partner 0.039 µg/mL",0.644
same,fitness,"S. aureus Newman; first compound 0.078 µg/mL, partner 0.078 µg/mL",0.693
same,fitness,"S. aureus Newman; first compound 0.156 µg/mL, partner 0.0195 µg/mL",0.506
same,fitness,"S. aureus Newman; first compound 0.156 µg/mL, partner 0.039 µg/mL",0.49
same,fitness,"S. aureus Newman; first compound 0.156 µg/mL, partner 0.078 µg/mL",0.541
same,fitness,"S. aureus Newman; first compound 0.312 µg/mL, partner 0.0195 µg/mL",0.297
same,fitness,"S. aureus Newman; first compound 0.312 µg/mL, partner 0.039 µg/mL",0.288
same,fitness,"S. aureus Newman; first compound 0.312 µg/mL, partner 0.078 µg/mL",0.301
same,fitness,"S. aureus Newman; first compound 0.625 µg/mL, partner 0.0195 µg/mL, one replicate",0.0231
same,fitness,"S. aureus Newman; first compound 0.625 µg/mL, partner 0.039 µg/mL, one replicate",0.0366
same,fitness,"S. aureus Newman; first compound 0.625 µg/mL, partner 0.078 µg/mL, one replicate",0.0525
same,fitness,"S. aureus Newman; first compound 1.25 µg/mL, partner 0.0195 µg/mL, one replicate",0.0448
same,fitness,"S. aureus Newman; first compound 1.25 µg/mL, partner 0.039 µg/mL, one replicate",0.0335
same,fitness,"S. aureus Newman; first compound 1.25 µg/mL, partner 0.078 µg/mL, one replicate",0.0319
same,fitness,"S. aureus Newman; first compound 2.5 µg/mL, partner 0.0195 µg/mL, one replicate",0.071
same,fitness,"S. aureus Newman; first compound 2.5 µg/mL, partner 0.039 µg/mL, one replicate",0.0438
same,fitness,"S. aureus Newman; first compound 2.5 µg/mL, partner 0.078 µg/mL, one replicate",0.0774
